Test systems include HT29 colon; IGROV1 ovarian; MALME-3M melanoma; NCI-H522 lung; NCI/ADR-RES ovarian; OVCAR-3 ovarian; SF-268 CNS; TK-10 renal; U251 CNS; UACC-257 melanoma.
Assay in all cases: inhibition of tumour cell growth, NCI panel, 48 h

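All cell lines were grown in 96-well plates and treated with compound for 48 hours. At the GI50, growth is halved. TGI denotes the concentration required for complete inhibition of growth.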

In the case of `N#Cc1ccccc1C#C/C=C\C#Cc1cnccn1`, the GI50 with HT29 colon was 8.72 µM; in the test on IGROV1 ovarian, 38.1 µM; in the test on MALME-3M melanoma, 22.3 µM; with NCI-H522 lung it was 18 µM; in the test on NCI/ADR-RES ovarian, 4.32 µM; in the test with OVCAR-3 ovarian, 1.22 µM. The GI50 in the test with SF-268 CNS is 48.9 µM; with TK-10 renal it was 13 µM; with U251 CNS it was 30.5 µM; with UACC-257 melanoma, 26.5 µM. Also, the TGI with HT29 colon is more than 100 µM; in the test on IGROV1 ovarian it was more than 100 µM; with MALME-3M melanoma, 81.4 µM; with NCI-H522 lung it was more than 65.9 µM; in the test on NCI/ADR-RES ovarian, more than 30.6 µM; in the test on OVCAR-3 ovarian, 18.3 µM. In addition, the TGI in the test with SF-268 CNS is more than 100 µM; in the test on TK-10 renal, 63.6 µM; in the test on U251 CNS, more than 100 µM; in the test with UACC-257 melanoma, more than 82.3 µM.
In the case of `CCOC(=O)C(Cc1ccc(N(CCCl)CCCl)cc1)NC(=O)C(CC(C)C)NC(C)=O` (centres undefined), the GI50 in the test on HT29 colon was 1.28 µM; in the test on IGROV1 ovarian it was 1.52 µM; in the test with MALME-3M melanoma, 0.873 µM; with NCI-H522 lung, 1.13 µM; in the test with NCI/ADR-RES ovarian, 2.14 µM; in the test with OVCAR-3 ovarian, 0.332 µM. Also, the GI50 in the test with SF-268 CNS is 1.09 µM; with TK-10 renal, 1.98 µM; in the test on U251 CNS it was 1.39 µM; in the test with UACC-257 melanoma it was 1.69 µM. For the same compound, the TGI came to 5.68 µM in the test on HT29 colon; 4.72 µM in the test with IGROV1 ovarian; 2.74 µM with MALME-3M melanoma; 2.65 µM in the test with NCI-H522 lung; 16.9 µM in the test on NCI/ADR-RES ovarian; 1.4 µM with OVCAR-3 ovarian. The TGI with SF-268 CNS is 5.51 µM; with TK-10 renal it was 4.87 µM; in the test with U251 CNS, 8.13 µM; in the test with UACC-257 melanoma, 5.66 µM.
`CN(C)CCCn1c2c(c3ccc([N+](=O)[O-])cc3c1=O)C(=O)c1ccccc1-2`: the GI50 with HT29 colon was 3.76 µM; in the test on IGROV1 ovarian, 4.98 µM; with MALME-3M melanoma it was 7.86 µM; in the test on NCI-H522 lung it was 4.2 µM; in the test on NCI/ADR-RES ovarian it was 7.22 µM; in the test with OVCAR-3 ovarian, 25.6 µM. The GI50 with SF-268 CNS is 9.53 µM; in the test with TK-10 renal, 15.3 µM; in the test on U251 CNS it was 6.36 µM; in the test with UACC-257 melanoma, 38.1 µM. For the same compound, the TGI was 21.3 µM with HT29 colon; more than 100 µM in the test with IGROV1 ovarian; more than 100 µM in the test on MALME-3M melanoma; more than 100 µM in the test on NCI-H522 lung; 34.5 µM in the test on NCI/ADR-RES ovarian; 70.5 µM in the test with OVCAR-3 ovarian. The TGI in the test with SF-268 CNS is more than 100 µM; in the test with TK-10 renal, 73.7 µM; with U251 CNS it was 27.7 µM; in the test on UACC-257 melanoma it was more than 100 µM.
With `Cn1c(N)cc(=O)nc1N`, the TGI with HT29 colon, in the test with IGROV1 ovarian, in the test on MALME-3M melanoma, with NCI-H522 lung, with NCI/ADR-RES ovarian and in the test on OVCAR-3 ovarian was more than 100 µM each time. Besides, the TGI in the test with SF-268 CNS, with TK-10 renal and in the test on U251 CNS was more than 100 µM in each case.
As to `C=CC(=O)N1CC[C@@H](Oc2nc(Nc3ccc(N4CCC(N5CCN(C)CC5)CC4)cc3)c(C(N)=O)nc2CC)C1`, the GI50 in the test on HT29 colon, with IGROV1 ovarian, in the test with MALME-3M melanoma, with NCI-H522 lung, in the test with NCI/ADR-RES ovarian and with OVCAR-3 ovarian was more than 100 µM each time. In addition, the GI50 in the test with SF-268 CNS, in the test with TK-10 renal, with U251 CNS and with UACC-257 melanoma was more than 100 µM throughout. Further, the TGI with HT29 colon, in the test with IGROV1 ovarian, in the test on MALME-3M melanoma, in the test with NCI-H522 lung, with NCI/ADR-RES ovarian and in the test with OVCAR-3 ovarian was more than 100 µM throughout. Also, the TGI with SF-268 CNS, with TK-10 renal, with U251 CNS and in the test on UACC-257 melanoma was more than 100 µM in each case.
In the case of `CC[N+]1(C)CCC(O)(/C=C/c2ccccc2)C(C(=O)/C=C/c2ccccc2)C1` (centres undefined), the TGI in the test with HT29 colon was 27.5 µM; in the test with IGROV1 ovarian, 37.9 µM; in the test on MALME-3M melanoma, 26.9 µM; in the test on NCI-H522 lung it was 3.78 µM; in the test with NCI/ADR-RES ovarian, more than 100 µM; in the test with OVCAR-3 ovarian, 28 µM. The TGI in the test with SF-268 CNS was determined as 60.5 µM; in the test with TK-10 renal, 18.3 µM; in the test on U251 CNS, 22.5 µM; in the test on UACC-257 melanoma, 24.8 µM.
Consider `CCS(=O)(=O)Nc1ccc(Oc2ccc(F)cc2F)c(-c2cn(C)c(=O)c3[nH]ccc23)c1`, for which the GI50 in the test with HT29 colon was less than 0.01 µM; in the test on IGROV1 ovarian, 0.0327 µM; in the test on MALME-3M melanoma it was 0.202 µM; in the test with NCI-H522 lung it was less than 0.01 µM; in the test on NCI/ADR-RES ovarian it was 0.561 µM; with OVCAR-3 ovarian, 0.0402 µM. In addition, the GI50 with SF-268 CNS is 1.57 µM; in the test on TK-10 renal, less than 0.01 µM; in the test on U251 CNS, 0.293 µM; in the test on UACC-257 melanoma, 0.0448 µM. Further, the TGI in the test on HT29 colon was 14.1 µM; in the test with IGROV1 ovarian, 20.5 µM; with MALME-3M melanoma, 12.9 µM; in the test with NCI-H522 lung it was 5.92 µM; in the test on NCI/ADR-RES ovarian it was 39.4 µM; in the test on OVCAR-3 ovarian it was 19.6 µM. Moreover, the TGI is 53.2 µM in the test on SF-268 CNS, 1.25 µM in the test on TK-10 renal, 16.8 µM in the test on U251 CNS and 23.1 µM in the test with UACC-257 melanoma.
`Cn1cnc2nc(Cl)nc(Cl)c21`: the GI50 in the test with HT29 colon was 0.365 µM; with IGROV1 ovarian, 2.47 µM; with MALME-3M melanoma, 13.6 µM; with NCI-H522 lung, 1.17 µM; with NCI/ADR-RES ovarian, 2.76 µM; in the test on OVCAR-3 ovarian it was 1.84 µM. In addition, the GI50 in the test on SF-268 CNS was 3.22 µM; with TK-10 renal it was 3.84 µM; in the test with U251 CNS, 3.27 µM; in the test on UACC-257 melanoma, 7.84 µM. The TGI was 12.6 µM in the test with HT29 colon; 37.7 µM in the test on IGROV1 ovarian; 50.3 µM with MALME-3M melanoma; 3.26 µM in the test with NCI-H522 lung; 13 µM in the test with NCI/ADR-RES ovarian; 6.12 µM with OVCAR-3 ovarian. The TGI in the test with SF-268 CNS came to 38.2 µM; in the test with TK-10 renal, 26.2 µM; with U251 CNS it was 11.7 µM; with UACC-257 melanoma, 24.8 µM.

These data come from PubChem BioAssay (NCI).
